Measured values published in patent publication EP1655284A1, “2-Phenylsulfopyrroles” (Aponetics AG, priority 2004, dated 2006).

Legend:
[1] = test system: HeLa; assay: Hoechst 33342 nuclear staining; assay type: cell-based, human; parameters: key: 0: no activity; 1: weak activity comprising less than 50% of the cells; 2: strong activity comprising more than 50% of the cells; settings: 48 hour read-out
Method: (§1) This assay is performed in 96 well tissue culture plates. Appropriate number of cells (adherent cells: 3 - 5*10^3, suspension cells: 8 - 10*10^3) are being seeded out in 80 µl complete medium. Adherent cells are incubated for 24 h for proper spreading out before addition of test compounds while suspension cells are immediately treated with test compounds after seeding out. The test compounds are added in 20 µl complete medium containing max 5% DMSO. […] After 24 h or 48 h incubation at culture conditions, 10 µl medium containing Hoechst 33342 dye (Sigma B-2261) at 2-5 µg/ml are added to each well. The assay plates are then further incubated for 30 minutes and subsequently analyzed with a standard inverted fluorescence microscope.
(§2) The readout allows the determination of the fraction of apoptotic nuclei as well as other morphological criteria specific for apoptosis as a function of the treatment. Table 2: Hoechst 33342 nuclear staining (48 hour read-out)

[2] = test system: H460; assay: Hoechst 33342 nuclear staining; assay type: cell-based, human; parameters: key: 0: no activity; 1: weak activity comprising less than 50% of the cells; 2: strong activity comprising more than 50% of the cells; settings: 48 hour read-out
Method: as §1, §2

[3] = test system: Jurkat; assay: Hoechst 33342 nuclear staining; assay type: cell-based, human; parameters: key: 0: no activity; 1: weak activity comprising less than 50% of the cells; 2: strong activity comprising more than 50% of the cells; settings: 48 hour read-out
Method: as §1, §2

[4] = test system: Jily; assay: Hoechst 33342 nuclear staining; assay type: cell-based; parameters: key: 0: no activity; 1: weak activity comprising less than 50% of the cells; 2: strong activity comprising more than 50% of the cells; settings: 48 hour read-out
Method: as §1, §2

[5] = test system: PBL; assay: Hoechst 33342 nuclear staining; assay type: cell-based; parameters: key: 0: no activity; 1: weak activity comprising less than 50% of the cells; 2: strong activity comprising more than 50% of the cells; settings: 48 hour read-out
Method: as §1, §2

[6] = test system: HeLa; assay: MTS proliferation assay; assay type: cell-based; settings: Homo sapiens, 72 h incubation
Method: (§3) The assay is performed in 96 well tissue culture plates. The cells (range : 1.5*10^3 - 10^4) are seeded out in 80 µl complete medium 24 h prior to compound treatment. The test compounds are added in 20 µl complete medium containing max 5% DMSO. The final compound concentrations in the assays are 10 µM, 3 µM, 1 µM and 0.3 µM, respectively. The assay plates are incubated for 72 h at culture conditions. The MTS reagent is prepared according to the manufacturer's protocol (Promega G1111). 20 µl MTS reagent are added to each well, the assay plates are quickly spun and incubated for another 3 h at culture conditions. Subsequently, the plates are shortly shaked and absorption measured with a microplate-reader at 492 nm. Table 3: MTS proliferation assay

[7] = test system: H460; assay: MTS proliferation assay; assay type: cell-based; settings: Homo sapiens, NCI-H460; H460, 72 h incubation
Method: as §3

[8] = test system: MRC5; assay: MTS proliferation assay; assay type: cell-based; settings: Homo sapiens; MRC5, 72 h incubation
Method: as §3

[9] = test system: Jily; assay: MTS proliferation assay; assay type: cell-based; settings: 72 h incubation
Method: as §3

[10] = test system: Jurkat; assay: MTS proliferation assay; assay type: cell-based; settings: Homo sapiens, 72 h incubation
Method: as §3

COc1ccc(S(=O)(=O)n2cc(C(=O)Nc3ccc(N4CCOCC4)cc3)cc2-c2cc(OC)c(OC)c(OC)c2)cc1 [Example 3, N-p-morpholinophenyl-1-p-methoxyphenylsulfonyl-2-(3,4,5-trimethoxyphenyl)-Pyrrole-4-carboxamide]
Hoechst 33342 nuclear staining score (fraction of apoptotic nuclei) ([1]; 0.01µM): 0
Hoechst 33342 nuclear staining score (fraction of apoptotic nuclei) ([1]; 0.1µM): 2 (strong activity comprising more than 50% of the cells.)
Hoechst 33342 nuclear staining score (fraction of apoptotic nuclei) ([1]; 1µM): 2 (strong activity comprising more than 50% of the cells.)
Hoechst 33342 nuclear staining score (fraction of apoptotic nuclei) ([2]; H460, 0.01µM): 0
Hoechst 33342 nuclear staining score (fraction of apoptotic nuclei) ([2]; H460, 0.1µM): 2 (strong activity comprising more than 50% of the cells.)
Hoechst 33342 nuclear staining score (fraction of apoptotic nuclei) ([2]; H460, 1µM): 2 (strong activity comprising more than 50% of the cells.)
Hoechst 33342 nuclear staining score (fraction of apoptotic nuclei) ([3]; 0.01µM): 2 (strong activity comprising more than 50% of the cells.)
Hoechst 33342 nuclear staining score (fraction of apoptotic nuclei) ([3]; 0.1µM): 2 (strong activity comprising more than 50% of the cells.)
Hoechst 33342 nuclear staining score (fraction of apoptotic nuclei) ([3]; 1µM): 2 (strong activity comprising more than 50% of the cells.)
Hoechst 33342 nuclear staining score (fraction of apoptotic nuclei) ([4]; 0.01µM): 2 (strong activity comprising more than 50% of the cells.)
Hoechst 33342 nuclear staining score (fraction of apoptotic nuclei) ([4]; 0.1µM): 2 (strong activity comprising more than 50% of the cells.)
Hoechst 33342 nuclear staining score (fraction of apoptotic nuclei) ([4]; 1µM): 2 (strong activity comprising more than 50% of the cells.)
Hoechst 33342 nuclear staining score (fraction of apoptotic nuclei) ([5]; 0.01µM): 0
Hoechst 33342 nuclear staining score (fraction of apoptotic nuclei) ([5]; 0.1µM): 0
Hoechst 33342 nuclear staining score (fraction of apoptotic nuclei) ([5]; 1µM): 0
IC50 [6]: < 0.1 µM
IC50 [7]: < 0.1 µM
IC50 [8]: < 0.1 µM
IC50 [9]: < 0.1 µM
IC50 [10]: < 0.1 µM

COc1ccc(S(=O)(=O)n2cc(Br)cc2-c2cc(OC)c(OC)c(OC)c2)cc1 [Example 1, 4-Bromo-1-p-methoxyphenylsulfonyl-2-(3,4,5-trimethoxyphenyl)-pyrrole]
Hoechst 33342 nuclear staining score (fraction of apoptotic nuclei) ([1]; 0.01µM): 0
Hoechst 33342 nuclear staining score (fraction of apoptotic nuclei) ([1]; 0.1µM): 0
Hoechst 33342 nuclear staining score (fraction of apoptotic nuclei) ([1]; 1µM): 2 (strong activity comprising more than 50% of the cells.)
Hoechst 33342 nuclear staining score (fraction of apoptotic nuclei) ([2]; H460, 0.01µM): 0
Hoechst 33342 nuclear staining score (fraction of apoptotic nuclei) ([2]; H460, 0.1µM): 2 (strong activity comprising more than 50% of the cells.)
Hoechst 33342 nuclear staining score (fraction of apoptotic nuclei) ([2]; H460, 1µM): 2 (strong activity comprising more than 50% of the cells.)
Hoechst 33342 nuclear staining score (fraction of apoptotic nuclei) ([3]; 0.01µM): 0
Hoechst 33342 nuclear staining score (fraction of apoptotic nuclei) ([3]; 0.1µM): 2 (strong activity comprising more than 50% of the cells.)
Hoechst 33342 nuclear staining score (fraction of apoptotic nuclei) ([3]; 1µM): 2 (strong activity comprising more than 50% of the cells.)
Hoechst 33342 nuclear staining score (fraction of apoptotic nuclei) ([4]; 0.01µM): 0
Hoechst 33342 nuclear staining score (fraction of apoptotic nuclei) ([4]; 0.1µM): 2 (strong activity comprising more than 50% of the cells.)
Hoechst 33342 nuclear staining score (fraction of apoptotic nuclei) ([4]; 1µM): 2 (strong activity comprising more than 50% of the cells.)
Hoechst 33342 nuclear staining score (fraction of apoptotic nuclei) ([5]; 0.01µM): 0
Hoechst 33342 nuclear staining score (fraction of apoptotic nuclei) ([5]; 0.1µM): 0
Hoechst 33342 nuclear staining score (fraction of apoptotic nuclei) ([5]; 1µM): 0
IC50 [6]: 0.1 to 1 µM
IC50 [7]: 0.1 to 1 µM
IC50 [8]: 0.1 to 1 µM
IC50 [9]: 0.1 to 1 µM
IC50 [10]: < 0.1 µM

COc1ccc(S(=O)(=O)n2cccc2-c2cc(OC)c(OC)c(OC)c2)cc1 [Example 2, 1-p-methoxyphenylsulfonyl-2-(3,4,5-trimethoxyphenyl)-pyrrole]
Hoechst 33342 nuclear staining score (fraction of apoptotic nuclei) ([1]; 0.01µM): 0
Hoechst 33342 nuclear staining score (fraction of apoptotic nuclei) ([1]; 0.1µM): 2 (strong activity comprising more than 50% of the cells.)
Hoechst 33342 nuclear staining score (fraction of apoptotic nuclei) ([1]; 1µM): 2 (strong activity comprising more than 50% of the cells.)
Hoechst 33342 nuclear staining score (fraction of apoptotic nuclei) ([2]; H460, 0.01µM): 0
Hoechst 33342 nuclear staining score (fraction of apoptotic nuclei) ([2]; H460, 0.1µM): 2 (strong activity comprising more than 50% of the cells.)
Hoechst 33342 nuclear staining score (fraction of apoptotic nuclei) ([2]; H460, 1µM): 2 (strong activity comprising more than 50% of the cells.)
Hoechst 33342 nuclear staining score (fraction of apoptotic nuclei) ([3]; 0.01µM): 0
Hoechst 33342 nuclear staining score (fraction of apoptotic nuclei) ([3]; 0.1µM): 2 (strong activity comprising more than 50% of the cells.)
Hoechst 33342 nuclear staining score (fraction of apoptotic nuclei) ([3]; 1µM): 2 (strong activity comprising more than 50% of the cells.)
Hoechst 33342 nuclear staining score (fraction of apoptotic nuclei) ([4]; 0.01µM): 0
Hoechst 33342 nuclear staining score (fraction of apoptotic nuclei) ([4]; 0.1µM): 2 (strong activity comprising more than 50% of the cells.)
Hoechst 33342 nuclear staining score (fraction of apoptotic nuclei) ([4]; 1µM): 2 (strong activity comprising more than 50% of the cells.)
Hoechst 33342 nuclear staining score (fraction of apoptotic nuclei) ([5]; 0.01µM): 0
Hoechst 33342 nuclear staining score (fraction of apoptotic nuclei) ([5]; 0.1µM): 0
Hoechst 33342 nuclear staining score (fraction of apoptotic nuclei) ([5]; 1µM): 0
IC50 [6]: 0.1 to 1 µM
IC50 [7]: < 0.1 µM
IC50 [8]: < 0.1 µM
IC50 [9]: < 0.1 µM
IC50 [10]: < 0.1 µM
